Measured values taken from patent US5874283A, “Mammalian flap-specific endonuclease” (Harrington; John Joseph, priority 1995, dated 1999).
Where two headings read alike, the source gives them in different places.

Legend:
[1] = biological target: T1, FEN-1 (flap endonuclease-1) purified from the nuclear fraction of mouse pre-B cell line 1-8 (Mus musculus, UniProt P39749); settings: replacement of MgCl2 with 5 mM EDTA
From the text: (§1) FEN-1 was purified from the nuclear fraction of a mouse pre-B cell line. The chromatographic behavior of FEN-1 was monitored using Flap Substrate 1 in the standard FEN-1 endonuclease assay.

[2] = biological target: T1, FEN-1 (flap endonuclease-1) purified from the nuclear fraction of mouse pre-B cell line 1-8; experiment: biochemical; settings: read-out: % Activity (endonuclease activity, FEN-1 activity versus divalent metal ion)
From the text: as §1

[3] = biological target: T1, FEN-1 (flap endonuclease-1) purified from the nuclear fraction of mouse pre-B cell line 1-8; experiment: biochemical; settings: 0.5 h, read-out: % Activity (exonuclease activity, FEN-1 activity versus divalent metal ion)
Method: All purification steps were carried out at 0°-4° C. Six liters of the murine pre-B cell line, 1-8 (Alt et al., 1984), were grown to 2×10^6 cells/ml in RPMI 1640, 10% FBS, 50 μM β-mercaptoethanol (βME), 100 μg/ml penicillin-streptomycin in spinner flasks. Eighteen liters of RPMI 1640 and 100 μg/ml penicillin-streptomycin were then added, and the cells were allowed to grow for an additional 24 h. The cells were harvested at a cell density of 1-1.5×10^6 cells/ml and spun at 1000 g in a Beckman JA-10 rotor for 5 min. The cell pellet was then washed with 500 ml of ice-cold PBS (5 mM NaPi pH 7.4, 137 mM NaCl, 3 mM KCl) supplemented with 1 g/l MgCl2 and pelleted as above. Nuclei were isolated by allowing the cell pellet to swell in 100 ml Buffer A (10 mM HEPES-KOH pH 7.8, 1.5 mM MgCl2, 10 mM KCl, 0.5 mM DTT) for 10 min on ice. The swollen cells were spun for 5 min at 2500 g in a Beckman J6B centrifuge, resuspended in 40 ml Buffer A and homogenized with 20 strokes of the B-pestle in a Dounce homogenizer. The nuclei were collected by centrifugation at 2500 g in a Beckman J6B for 5 min and lysed by adding 40 ml of Buffer B (20 mM EPES-KOH pH 7.8, 0.42M NaCl, 25% glycerol, 1.5 mM MgCl2, 0.2 mM EDTA, 0.5 mM DTT, 0.5 mM PMSF). Nuclear lysis was completed with 20 strokes of the B-pestle in a Dounce homogenizer. […]

T1 sequence (P39749 whole entry): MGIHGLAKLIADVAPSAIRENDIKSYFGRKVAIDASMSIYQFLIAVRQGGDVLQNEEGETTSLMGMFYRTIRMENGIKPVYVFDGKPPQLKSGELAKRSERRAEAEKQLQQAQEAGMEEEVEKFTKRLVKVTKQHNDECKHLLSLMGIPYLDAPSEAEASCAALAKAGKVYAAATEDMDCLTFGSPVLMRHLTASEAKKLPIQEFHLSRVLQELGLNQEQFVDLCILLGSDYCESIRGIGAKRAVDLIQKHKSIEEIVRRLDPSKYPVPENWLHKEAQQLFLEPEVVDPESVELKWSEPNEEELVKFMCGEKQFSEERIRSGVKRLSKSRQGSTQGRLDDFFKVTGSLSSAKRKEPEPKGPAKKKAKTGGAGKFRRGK

O=C(O)CN(CCN(CC(=O)O)CC(=O)O)CC(=O)O [EDTA] was tested. Which “Inhibition of the flap cleavage reaction” value [1] did it give?
The value was “completely inhibited”.

What about the activity at 5000 µM [2] of the same compound?
Its activity at 5000 µM is under 1%.

And the activity at 5000 µM [3]?
The activity at 5000 µM was under 0.5%.
